Drawing on patent publication US11091478B2 (Fochon Pharmaceuticals, Ltd., priority 2017, dated 2021), this text covers IC50 for 15 compounds.

As usually defined, the IC50 is the concentration that gives 50% inhibition. A low value points to inhibition by little substance.

One experiment relates to DOHH2 cells. Description: Cell proliferation assay (MTS), DOHH2 cells, 120 h. It is filed as cell-based. The conditions noted are these: Homo sapiens, DOHH-2, 120 h. In outline: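 Cells in RPMI-1640 with 10% FBS were seeded at 5000/well, left overnight at 37° C., 5% CO2, then exposed to compound at 10000 down to 1.5 nM (nine concentrations) for 72 h (RS4;11) or 120 h (DOHH2). Viability was read by MTS, 2 h, absorbance at 490/650 nm; IC50 calculated.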

In the next experiment the test system is RS4;11 cells. Description: Cell proliferation assay (MTS), RS4;11 cells, 72 h. It is filed as cell-based. The conditions noted are these: Homo sapiens, RS4-11, 72 h. The text has this: Cell Proliferation Assays
MTS testing kit was purchased from Promega. The RPMI-1640, Fetal bovine serum and Penicillin-Streptomycin were purchased from Gibco. Dimethyl sulfoxide (DMSO) was purchased from Sigma.
To investigate whether a compound is able to inhibit the activity of BCL-2 in cells, a mechanism-based assay using DOHH2 (DSMZ No.® ACC 47) and RS4;11 (ATCC® CRL-1873™) cell was developed. In this assay, inhibition of Bcl-2 was detected by the inhibition of DOHH2 cells proliferation. DOHH2 cells were cultured in culture flasks to 40-80% confluence in RPMI-1640 plus 10% fetal bovine serum. Cells were collected and plated onto 96-well plates at desired cell density (5000 cells/well). Plates were incubated overnight at 37° C., with 5% CO2 to adhere. Compounds were added to the plates, and the final compound concentrations were 10000, 3333, 1111, […], 124, 41, 14, 4.6 and 1.5 nM. Plates plated with DOHH2 or RS4;11 cells were placed at 37° C., with 5% CO2 for 120 h (DOHH2) or 72 h (RS4;11) respectively. 20 μl MTS/100 μl medium mixture solution were added to each well and incubate the plates for exactly 2 hours. The reaction was stopped by adding 25 μl 10% SDS per well. Measure absorbance at 490 nm and 650 nm (reference wavelength). IC50 was calculated using GraphPad Prism 5.0.
Select compounds prepared as described above were assayed according to the biological procedures described herein.

The structures appear in SMILES notation.

On to `CN(C)C[C@@H]1Cc2cc(S(=O)(=O)NC(=O)c3ccc(N4CCN(CC5=C(c6ccc(Cl)cc6)CC(C)(C)CC5)CC4)cc3Oc3cnc4[nH]ccc4c3)cc([N+](=O)[O-])c2N1` [Example 1-5], for which the IC50 worked out at 211 nM with DOHH2 cells and 51 nM in the experiment on RS4;11 cells.
Take `CN1CCN(C[C@H]2Cc3cc(S(=O)(=O)NC(=O)c4ccc(N5CCN(CC6=C(c7ccc(Cl)cc7)CC(C)(C)CC6)CC5)cc4Oc4cnc5[nH]ccc5c4)cc([N+](=O)[O-])c3N2)CC1` [Example 1-7, (R)-2-((1H-pyrrolo[2,3-b]pyridin-5-yl)oxy)-4-(4-((4′-chloro-5,5-dimethyl-3,4,5,6-tetra-hydro-[1,1′-biphenyl]-2-yl)methyl)piperazin-1-yl)-N-((2-((4-methylpiperazin-1-yl)meth-yl)-7-nitroindolin-5-yl)sulfonyl)benzamide]: the concentration for half-maximal inhibition (IC50) in the experiment with DOHH2 cells was 26 nM; in the experiment on RS4;11 cells, 3 nM.
`CC1(C)CCC(CN2CCN(c3ccc(C(=O)NS(=O)(=O)c4cc5c(c([N+](=O)[O-])c4)N[C@@H](CN4CCOCC4)C5)c(Oc4cnc5[nH]ccc5c4)c3)CC2)=C(c2ccc(Cl)cc2)C1` [Example 1-8, (R)-2-((1H-pyrrolo[2,3-b]pyridin-5-yl)oxy)-4-(4-((4′-chloro-5,5-dimethyl-3,4,5,6-tetra-hydro-[1,1′-biphenyl]-2-yl)methyl)piperazin-1-yl)-N-((2-(morpholinomethyl)-7-nitro-indolin-5-yl)sulfonyl)benzamide]: the IC50 in the experiment with DOHH2 cells is 27 nM; in the experiment on RS4;11 cells it was 1 nM.
On to `CC1(C)CCC(CN2CCN(c3ccc(C(=O)NS(=O)(=O)c4cc5c(c([N+](=O)[O-])c4)N[C@@H](CN4CCC(C)(O)CC4)C5)c(Oc4cnc5[nH]ccc5c4)c3)CC2)=C(c2ccc(Cl)cc2)C1` [Example 1-9, (R)-2-((1H-pyrrolo[2,3-b]pyridin-5-yl)oxy)-4-(4-((4′-chloro-5,5-dimethyl-3,4,5,6-tetra-hydro-[1,1′-biphenyl]-2-yl)methyl)piperazin-1-yl)-N-((2-((4-hydroxy-4-methylpiperidin-1-yl)methyl)-7-nitroindolin-5-yl)sulfonyl) benzamide], for which the half-inhibitory concentration (IC50) in the experiment with DOHH2 cells stood at 66 nM; in the experiment with RS4;11 cells, 80 nM.
For the compound `CN(C)C[C@H]1Cc2cc(S(=O)(=O)NC(=O)c3ccc(N4CCN(CC5=C(c6ccc(Cl)cc6)CC(C)(C)CC5)CC4)cc3Oc3cnc4[nH]ccc4c3)cc([N+](=O)[O-])c2N1` [Example 1-10, (R)-2-((1H-pyrrolo[2,3-b]pyridin-5-yl)oxy)-4-(4-((4′-chloro-5,5-dimethyl-3,4,5,6-tetra-hydro-[1,1′-biphenyl]-2-yl)methyl)piperazin-1-yl)-N-((2-((dimethylamino)methyl)-7-nitroindolin-5-yl)sulfonyl)benzamide], the values for the IC50 with DOHH2 cells and with RS4;11 cells were 33 nM and 16 nM, respectively.
The matching figures for `CC1(C)CCC(CN2CCN(c3ccc(C(=O)NS(=O)(=O)c4cc5c(c([N+](=O)[O-])c4)N[C@@H](CO)C5)c(Oc4cnc5[nH]ccc5c4)c3)CC2)=C(c2ccc(Cl)cc2)C1` [Example 1-11, (R)-2-((1H-pyrrolo[2,3-b]pyridin-5-yl)oxy)-4-(4-((4′-chloro-5,5-dimethyl-3,4,5,6-tetra-hydro-[1,1′-biphenyl]-2-yl)methyl)piperazin-1-yl)-N-((2-(hydroxymethyl)-7-nitroindolin-5-yl)sulfonyl)benzamide]: 154 nM and 69 nM.
`CN1CCN(CC[C@@H]2Cc3cc(S(=O)(=O)NC(=O)c4ccc(N5CCN(CC6=C(c7ccc(Cl)cc7)CC(C)(C)CC6)CC5)cc4Oc4cnc5[nH]ccc5c4)cc([N+](=O)[O-])c3N2)CC1` [Example 1-12, (S)-2-((1H-pyrrolo[2,3-b]pyridin-5-yl)oxy)-4-(4-((4′-chloro-5,5-dimethyl-3,4,5,6-tetra-hydro-[1,1′-biphenyl]-2-yl)methyl)piperazin-1-yl)-N-((2-(2-(4-methylpiperazin-1-yl)eth-yl)-7-nitroindolin-5-yl)sulfonyl)benzamide]: the IC50 with DOHH2 cells stood at 299 nM; in the experiment on RS4;11 cells, 58 nM.
With `CC1(C)CCC(CN2CCN(c3ccc(C(=O)NS(=O)(=O)c4cc5c(c([N+](=O)[O-])c4)N[C@H](CCN4CCC(C)(O)CC4)C5)c(Oc4cnc5[nH]ccc5c4)c3)CC2)=C(c2ccc(Cl)cc2)C1` [Example 1-13, (S)-2-((1H-pyrrolo[2,3-b]pyridin-5-yl)oxy)-4-(4-((4′-chloro-5,5-dimethyl-3,4,5,6-tetra-hydro-[1,1′-biphenyl]-2-yl)methyl)piperazin-1-yl)-N-((2-(2-(4-hydroxy-4-methylpiper-idin-1-yl)ethyl)-7-nitroindolin-5-yl)sulfonyl) benzamide], the figures for the IC50 in the experiment with DOHH2 cells and in the experiment on RS4;11 cells were 91 nM and 74 nM, respectively.
Regarding `CN(C)CC[C@@H]1Cc2cc(S(=O)(=O)NC(=O)c3ccc(N4CCN(CC5=C(c6ccc(Cl)cc6)CC(C)(C)CC5)CC4)cc3Oc3cnc4[nH]ccc4c3)cc([N+](=O)[O-])c2N1` [Example 1-14, (S)-2-((1H-pyrrolo[2,3-b]pyridin-5-yl)oxy)-4-(4-((4′-chloro-5,5-dimethyl-3,4,5,6-tetra-hydro-[1,1′-biphenyl]-2-yl)methyl)piperazin-1-yl)-N-((2-(2-(dimethylamino)ethyl)-7-nitroindolin-5-yl)sulfonyl)benzamide], the IC50 in the experiment on DOHH2 cells stood at 57 nM; with RS4;11 cells, 52 nM.
Take `CN1CCN(CC[C@H]2Cc3cc(S(=O)(=O)NC(=O)c4ccc(N5CCN(CC6=C(c7ccc(Cl)cc7)CC(C)(C)CC6)CC5)cc4Oc4cnc5[nH]ccc5c4)cc([N+](=O)[O-])c3N2)CC1` [Example 1-15, (R)-2-((1H-pyrrolo[2,3-b]pyridin-5-yl)oxy)-4-(4-((4′-chloro-5,5-dimethyl-3,4,5,6-tetrahydro-[1,1′-biphenyl]-2-yl)methyl)piper-azin-1-yl)-N-((2-(2-(4-methylpiperazin-1-yl)ethyl)-7-nitroindolin-5-yl)sulfonyl) benzamide]: the results for the IC50 in the experiment with DOHH2 cells and with RS4;11 cells were 50 nM and 15 nM, respectively.
The matching figures for `CC1(C)CCC(CN2CCN(c3ccc(C(=O)NS(=O)(=O)c4cc5c(c([N+](=O)[O-])c4)N[C@@H](CCN4CCOCC4)C5)c(Oc4cnc5[nH]ccc5c4)c3)CC2)=C(c2ccc(Cl)cc2)C1` [Example 1-16, (R)-2-((1H-pyrrolo[2,3-b]pyridin-5-yl)oxy)-4-(4-((4′-chloro-5,5-dimethyl-3,4,5,6-tetra-hydro-[1,1′-biphenyl]-2-yl)methyl)piperazin-1-yl)-N-((2-(2-morpholinoethyl)-7-nitro-indolin-5-yl)sulfonyl)benzamide]: 73 nM and 16 nM.
On to `CC1(C)CCC(CN2CCN(c3ccc(C(=O)NS(=O)(=O)c4cc5c(c([N+](=O)[O-])c4)N[C@@H](CCN4CCC(C)(O)CC4)C5)c(Oc4cnc5[nH]ccc5c4)c3)CC2)=C(c2ccc(Cl)cc2)C1` [Example 1-17, (R)-2-((1H-pyrrolo[2,3-b]pyridin-5-yl)oxy)-4-(4-((4′-chloro-5,5-dimethyl-3,4,5,6-tetra-hydro-[1,1′-biphenyl]-2-yl)methyl)piperazin-1-yl)-N-((2-(2-(4-hydroxy-4-methylpiper-idin-1-yl)ethyl)-7-nitroindolin-5-yl)sulfonyl) benzamide], for which the results for the IC50 in the experiment with DOHH2 cells and in the experiment on RS4;11 cells were 61 nM and 56 nM, respectively.
With `CN(C)CC[C@H]1Cc2cc(S(=O)(=O)NC(=O)c3ccc(N4CCN(CC5=C(c6ccc(Cl)cc6)CC(C)(C)CC5)CC4)cc3Oc3cnc4[nH]ccc4c3)cc([N+](=O)[O-])c2N1` [Example 1-18, (R)-2-((1H-pyrrolo[2,3-b]pyridin-5-yl)oxy)-4-(4-((4′-chloro-5,5-dimethyl-3,4,5,6-tetra-hydro-[1,1′-biphenyl]-2-yl)methyl)piperazin-1-yl)-N-((2-(2-(dimethylamino)ethyl)-7-nitroindolin-5-yl)sulfonyl)benzamide], the half-maximal inhibitory concentration (IC50) turned out to be 5 nM with DOHH2 cells and 18 nM in the experiment on RS4;11 cells.
Take `CC1(C)CCC(CN2CCN(c3ccc(C(=O)NS(=O)(=O)c4cc5c(c([N+](=O)[O-])c4)N[C@@H](CCO)C5)c(Oc4cnc5[nH]ccc5c4)c3)CC2)=C(c2ccc(Cl)cc2)C1` [Example 1-19, (R)-2-((1H-pyrrolo[2,3-b]pyridin-5-yl)oxy)-4-(4-((4′-chloro-5,5-dimethyl-3,4,5,6-tetra-hydro-[1,1′-biphenyl]-2-yl)methyl)piperazin-1-yl)-N-((2-(2-hydroxyethyl)-7-nitro-indolin-5-yl)sulfonyl)benzamide]: the half-inhibitory concentration (IC50) is 96 nM in the experiment on DOHH2 cells and 93 nM with RS4;11 cells.
Take `CC1(C)CCC(CN2CCN(c3ccc(C(=O)NS(=O)(=O)c4cc([N+](=O)[O-])c5[nH]c(CN6CCOCC6)cc5c4)c(Oc4cnc5[nH]ccc5c4)c3)CC2)=C(c2ccc(Cl)cc2)C1` [Example 1-21, 2-((1H-pyrrolo[2,3-b]pyridin-5-yl)oxy)-4-(4-((4′-chloro-5,5-dimethyl-3,4,5,6-tetra-hydro-[1,1′-biphenyl]-2-yl)methyl)piperazin-1-yl)-N-((2-(morpholino-methyl)-7-nitro-1H-indol-5-yl)sulfonyl)benzamide]: the IC50 in the experiment with DOHH2 cells is 12 nM; in the experiment with RS4;11 cells, 1 nM.
